Where two headings read alike, the source gives them in different places.

These results are taken from publication PMC8510480, “Searching Anti-Zika Virus Activity in 1H-1,2,3-Triazole Based Compounds” (Molecules, 2021).

Test [1] concerns ZIKV. Briefly: Screening test for anti-ZIKV activity (post-infection, compounds at CC20, TCID50 titration). Particulars: ZIKV MOI 0.1, compound at CC20, 5 days, TCID50, Vero cells. Format: cell-based, Zika virus. The method, then: The antiviral activities of the compounds were evaluated by infecting Vero cells with ZIKV and then treating them with the testing molecules. Virus titer in the supernatants of treated wells and its comparison with the negative (cell + virus) and the positive 6-methylmercaptopurine riboside (6MMPr) controls allowed for the determination of the antiviral effect.
Figure 4 Graphic result of all triazole derivates in the screening test for anti-ZIKV activity. The screening test was made for post-infection with ZIKV MOI 0.1 and treated with CC20 values from heterocyclic compounds discovered in the cytotoxicity test. After five days, the supernatant was collected and titrated by TCID50 method. The experiment was conducted in triplicates and values are the mean and the standard deviation (SD). […]
96-well plates with 1 × 10^4 cell/well were used in this assay and prepared 24 h previously. […] The reading was performed in an inverted optical microscope AE2000, Motic (Motic, Kowloon Bay, Hong Kong) counting positives wells by the presence of cytopathic effect and the determination of the sample title was performed with the aid of the Microsoft Office Excel program (Microsoft® Office, Redmond, WA, USA).
The screening of the compounds was carried out with the CC20 value (µM) to determine the most viable compounds for more detailed antiviral tests. […] The samples were then titrated and analysed statistically.

The test system of test [2] is ZIKV. Briefly: Post-infection test with ZIKV in Vero cells. Particulars: for inhibition at 136.9 µM: CC20 (4b 136.90 µM; 6MMPr 60.50 µM); for inhibition at 136.9 µM / inhibition at 68.45 µM / inhibition at 34.23 µM / inhibition at 17.11 µM: read-out: % Viral Inhibition; for inhibition at 68.45 µM: CC20/2 (4b 68.45 µM; 6MMPr 30.25 µM); for inhibition at 34.23 µM: CC20/4 (4b 34.23 µM; 6MMPr 15.13 µM); for inhibition at 17.11 µM: CC20/8 (4b 17.11 µM; 6MMPr 7.6 µM). It is filed as cell-based, Zika virus. The procedure:
We then investigated the activity of compound 4b after ZIKV infection in cells. As already noted in the screening test, 4b reduced ZIKV growth to levels similar to 6MMPr, a positive control previously described by our group. As in the pre-treatment test, four different concentrations were used, with the maximum being CC20 (136.90, 68.45, 34.22 and 17.11 µM). […] It is worth highlighting the constant decrease in the viral titer, even in lower concentrations, while the positive control 6MMPr reduces it only in the highest concentrations.
Statistical analysis compared the concentrations of each compound at each collection time (3 d.p.i. and 5 d.p.i.) with a t-test.
Figure 6 Comparison of anti-ZIKV activity between 6MMPr and 4b after three- and five-days post-infection (d.p.i.). 6MMPr and compound 4b were submitted to a post-infection test when Vero cells was infected with ZIKV at MOI 0.1 for 2 h then treated with compounds. Concentrations used in the test corresponded to CC20 (4b = 136.90 µM; 6MMPr = 60.50 µM), CC20/2 (4b = 68.45 µM; 6MMPr = 30.25 µM), CC20/4 (4b = 34.22 µM; 6MMPr = 15.13 µM) and CC20/8 (4b = 17.11 µM; 6MMPr = 7.56 µM). The experiment was done in triplicates and values are the mean and the SD. Statistical analysis was made between compounds using t-test on GraphPad Prism program. * = significative; ns = not statistically significant for p < 0.05. (a) 3 d.p.i. from both compounds. (b) 5 d.p.i. from both compounds.
96-well plates with 1 × 10^4 cell/well were used in this assay and prepared 24 h previously. Seven serial dilutions of the virus were prepared in DMEM + 2% FBS culture medium. After removing the culture medium from the plate, 50 µL of each dilution was added to the wells in several repetitions. The plate was incubated at 37 °C and 5% atm CO2 for 1 h. After this interval, each well of the plate received an additional 100 µL of DMEM + 2% FBS culture medium. The plate was incubated again, in the same parameters, for 5 days. Some columns of the plate were selected for use as a cell control (culture medium only, no virus). The reading was performed in an inverted optical microscope AE2000, Motic (Motic, Kowloon Bay, Hong Kong) counting positives wells by the presence of cytopathic effect and the determination of the sample title was performed with the aid of the Microsoft Office Excel program (Microsoft® Office, Redmond, WA, USA).
48-well plates with 2.5 × 10^4 cells/well were prepared 24 h previously. A ZIKV solution at MOI 0.1 was inoculated into the wells and the cells incubated at 37 °C and 5% CO2 atmosphere. After 2 h, the culture medium was removed, and the wells were washed with 1X PBS. 2:1 dilution of 4b (136.90 µM, 68.45 µM, 34.22 µM and 17.11 µM) and 6MMPr (60.50 µM, 30.25 µM, 15.13 µM and 7.56 µM) were added in triplicate. The cells were again incubated for 72 h and 120 h. The supernatants from the wells were collected and titrated.

As to `O=C1C(Br)=C(NCc2cn(CN3C(=O)c4ccccc4C3=O)nn2)C(=O)c2ccccc21` [Compound 4b], the “reduction in viral titer vs non-treated control” value in the test on ZIKV [1] was “statistically significant reduction in viral titer”. In the test on ZIKV [2] (Zika virus, 72 h, 3 d.p.i.), the inhibition – broadly, the relative decrease from the control value, in per cent – at 136.9 µM worked out at 94.9%; the inhibition at 68.45 µM was 85.6%; the inhibition at 34.23 µM was 85.8%. In the test on ZIKV [2] (Zika virus, 72 h, 3 d.p.i., negative = increased virus titer compared to control), the inhibition at 17.11 µM was found to be 88.8%. For the same molecule, in the test on ZIKV [2] (Zika virus, 120 h, 5 d.p.i.), the inhibition at 136.9 µM amounted to 97.5%, the inhibition at 68.45 µM came out at 93.7%, the inhibition at 34.23 µM stood at 90.8% and the inhibition at 17.11 µM stood at 96.8%. The IC50 in the test on ZIKV [2] (Zika virus, Vero, read-out: IC50 (50% inhibition concentration, virus replication)) was determined as 146 µM. In addition, in the test with ZIKV [2] (post-infection test, Table 4, concentration and time not stated), the “% Viral Inhibition” value was 91.1%. Besides, in the test with ZIKV [2] (post-infection, four concentrations from CC20 to CC20/8, 3 and 5 d.p.i.), the “effect on growth of the virus (viral titer)” value was “inhibits the growth of the virus at all concentrations used”. For the same molecule, the “SI (selectivity index)” value in the test on ZIKV [2] (ratio between the CC50 and IC50 values) was found to be 2.3.
